Data taken from the supplement of paper PMC10307832.

Tests used:
Experiment in all cases: relative viability (nuclei count vs DMSO), 5 days (fraction); higher = more cells survive
KIN001-266 + Lapatinib = compound: CCN1CCC(CC1)N2C=C(N=N2)CNC3=CC4=C(C(=CN=C4C(=C3)Cl)C#N)NC5=CC(=C(C=C5)F)Cl [KIN001-266] + CS(=O)(=O)CCNCc1ccc(-c2ccc3ncnc(Nc4ccc(OCc5cccc(F)c5)c(Cl)c4)c3c2)o1 [Lapatinib] (partner 2 µM)
In short: (§1)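 Cells from lung cancer lines were seeded into 1536-well plates and, one day later, dosed by pin tool. Treatments were either a single drug or a fixed dose of an anchor drug with five library-drug doses (not always all listed) in √10 steps. After 5 days, nuclei were stained in a one-step fixation (final 0.05% Triton X-100, 1% formaldehyde, 1 ug/ml Hoechst) and counted on 4× images, and relative viability is the treated-to-vehicle nuclei ratio, as the median of duplicate plates.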

KIN001-266 + Decitabine = compound: CCN1CCC(CC1)N2C=C(N=N2)CNC3=CC4=C(C(=CN=C4C(=C3)Cl)C#N)NC5=CC(=C(C=C5)F)Cl [KIN001-266] + Nc1ncn([C@H]2C[C@H](O)[C@@H](CO)O2)c(=O)n1 [Decitabine] (partner 2 µM)
In short: as §1

KIN001-266 + Bortezomib = compound: CCN1CCC(CC1)N2C=C(N=N2)CNC3=CC4=C(C(=CN=C4C(=C3)Cl)C#N)NC5=CC(=C(C=C5)F)Cl [KIN001-266] + CC(C)C[C@H](NC(=O)[C@H](Cc1ccccc1)NC(=O)c1cnccn1)B(O)O [Bortezomib] (partner 0.002 µM)
In short: as §1

KIN001-266 + AZD7762 = compound: CCN1CCC(CC1)N2C=C(N=N2)CNC3=CC4=C(C(=CN=C4C(=C3)Cl)C#N)NC5=CC(=C(C=C5)F)Cl [KIN001-266] + NC(=O)Nc1cc(-c2cccc(F)c2)sc1C(=O)N[C@H]1CCCNC1 [AZD7762] (partner 0.2 µM)
In short: as §1

Cell Line | relative viability (KIN001-266 + Lapatinib; first compound 0.08 µM) | relative viability (KIN001-266 + Lapatinib; first compound 0.253 µM) | relative viability (KIN001-266 + Lapatinib; first compound 0.8 µM) | relative viability (KIN001-266 + Lapatinib; first compound 2.53 µM) | relative viability (KIN001-266 + Lapatinib; first compound 8 µM) | relative viability (KIN001-266 + Decitabine; first compound 0.08 µM) | relative viability (KIN001-266 + Decitabine; first compound 0.253 µM) | relative viability (KIN001-266 + Decitabine; first compound 0.8 µM) | relative viability (KIN001-266 + Decitabine; first compound 2.53 µM) | relative viability (KIN001-266 + Decitabine; first compound 8 µM) | relative viability (KIN001-266 + Bortezomib; first compound 0.08 µM) | relative viability (KIN001-266 + Bortezomib; first compound 0.253 µM) | relative viability (KIN001-266 + Bortezomib; first compound 0.8 µM) | relative viability (KIN001-266 + Bortezomib; first compound 2.53 µM) | relative viability (KIN001-266 + Bortezomib; first compound 8 µM) | relative viability (KIN001-266 + AZD7762; first compound 0.08 µM) | relative viability (KIN001-266 + AZD7762; first compound 0.253 µM) | relative viability (KIN001-266 + AZD7762; first compound 0.8 µM) | relative viability (KIN001-266 + AZD7762; first compound 2.53 µM) | relative viability (KIN001-266 + AZD7762; first compound 8 µM)
EMC-BAC-2 | 0.906 | 0.907 | 0.879 | 0.917 | 0.942 | 1.04 | 1.04 | 0.965 | 0.984 | 0.988 | 1.07 | 1.11 | 1.02 | 1.04 | 1.04 | 1.17 | 1.18 | 1.15 | 1.16 | 1.21
EPLC-272H | 1.03 | 0.982 | 1.05 | 0.732 | 0.797 | 0.382 | 0.404 | 0.338 | 0.344 | 0.319 | 1.19 | 0.949 | 0.751 | 0.839 | 0.605 | 0.304 | 0.212 | 0.191 | 0.185 | 0.371
H3255 | 0.346 | 0.219 | 0.283 | 0.251 | 0.294 | 0.632 | 0.557 | 0.587 | 0.618 | 0.713 | 0.899 | 0.775 | 0.838 | 0.788 | 0.699 | 0.846 | 0.731 | 0.792 | 0.908 | 0.8
HARA | 0.929 | 0.689 | 0.842 | 0.823 | 0.657 | 0.416 | 0.616 | 0.635 | 0.57 | 0.439 | 1.07 | 1.09 | 1.16 | 1.07 | 1.04 | 0.306 | 0.369 | 0.364 | 0.233 | 0.261
HCC-15 | 0.779 | 0.851 | 0.731 | 0.734 | 0.646 | 0.679 | 0.691 | 0.539 | 0.497 | 0.488 | 1.01 | 1.04 | 0.868 | 0.864 | 0.662 | 1.23 | 1.14 | 1.18 | 0.6 | 1.06
HCC-44 | 0.964 | 1.03 | 0.959 | 0.985 | 1.02 | 0.977 | 0.964 | 1.01 | 0.847 | 0.99 | 0.944 | 0.867 | 0.815 | 0.852 | 0.864 | 1.04 | 1.01 | 0.989 | 0.969 | 1.05
HCC-78 | 0.79 | 0.612 | 0.597 | 0.731 | 0.773 | 0.813 | 0.684 | 0.675 | 0.759 | 0.715 | 0.57 | 0.261 | 0.464 | 0.495 | 0.616 | 0.654 | 0.603 | 0.469 | 0.619 | 0.694
HCC-366 | 0.911 | 1.03 | 1 | 1.05 | 1.02 | 0.359 | 0.362 | 0.221 | 0.346 | 0.317 | 1.04 | 1.06 | 0.996 | 0.998 | 1.01 | 0.552 | 0.361 | 0.175 | 0.26 | 0.175
HCC-827 | 0.2 | 0.18 |  | 0.191 | 0.217 | 0.327 | 0.382 | 0.153 | 0.28 | 0.268 | 1.09 | 1.03 |  | 1.07 | 1.09 | 0.28 | 0.224 | 0.131 | 0.215 | 0.196
HOP-62 | 0.944 | 0.801 | 1.13 | 0.815 | 1.09 | 0.224 | 0.215 | 0.287 | 0.204 | 0.217 | 0.563 | 0.565 | 0.575 | 0.779 | 1.07 | 0.583 | 0.671 | 1.03 | 0.729 | 0.447
LC-2-ad | 0.999 | 0.847 | 1.02 | 0.972 | 0.929 | 0.802 | 0.794 | 0.676 | 0.733 | 0.771 | 0.954 | 0.948 | 1.02 | 1.03 | 0.956 | 0.8 | 0.867 | 0.777 | 0.863 | 0.636
LCLC-97TM1 | 0.836 | 0.868 | 1.14 | 1.04 | 0.844 | 0.22 | 0.226 | 0.226 |  | 0.168 | 0.679 | 0.595 | 0.489 | 0.731 | 0.337 | 0.339 |  | 0.281 |  | 0.212
LOU-NH91 | 0.854 | 0.751 | 0.711 | 0.689 | 0.745 | 0.796 | 0.82 | 0.728 | 0.767 | 0.701 | 0.499 | 0.497 | 0.428 | 0.513 | 0.443 | 0.785 | 0.617 | 0.711 | 0.711 | 0.734
LU99A | 1.16 | 1.07 | 1.03 | 0.834 | 0.803 | 0.976 | 1.01 | 0.9 | 0.613 | 0.607 | 1.31 | 1.17 | 1.11 | 1.02 | 0.982 | 0.367 | 0.384 | 0.299 | 0.257 | 0.272
LXF-289 | 0.901 | 0.898 | 0.862 | 0.865 | 0.96 | 0.379 | 0.365 | 0.369 | 0.34 | 0.414 | 0.954 | 0.987 | 0.95 | 0.972 | 1.03 | 0.996 | 1.04 | 1.09 | 1.09 | 1.19
NCI-H23 | 1.22 | 1.12 | 1 | 0.991 | 0.845 | 0.332 | 0.297 | 0.311 | 0.311 | 0.256 | 1.14 | 1.1 | 1.04 | 0.916 | 0.642 | 0.195 | 0.249 | 0.304 | 0.22 | 0.246
